Test results published in patent US20070037790A1, “Bicyclo-pyrazole derivatives active as kinase inhibitors, process for their preparation and pharmaceutical compositions comprising them” (priority 2003, published 2007).

Molecular target: Cdk2/Cyclin A (Homo sapiens, UniProt P24941)
Assay: Inhibition assay of Cdk2/Cyclin A activity (SPA)
Type: biochemical
Details: 10 μM ATP, biotinylated histone H1 substrate, read-out: IC50 against Cdk2/Cyclin A
Protocol: The inhibiting activity of putative Cdk/Cyclin inhibitors and the potency of selected compounds is determined through a method of assay based on the use of the SPA technology (Amersham Pharmacia Biotech).
The assay consists of the transfer of radioactivity labelled phosphate moiety by the kinase to a biotinylated substrate. The resulting 33P-labelled biotinylated product is allowed to bind to streptavidin-coated SPA beads (biotin capacity 130 pmol/mg), and light emitted is measured in a scintillation counter.
Inhibition Assay of Cdk2/Cyclin A Activity
Kinase reaction: 4 μM in house biotinylated histone H1 (Sigma # H-5505) substrate, 10 μM ATP (0.1 microCi P^33γ-ATP), 4.2 ng Cdk2/Cyclin A complex, inhibitor in a final volume of 30 μl buffer (TRIS HCl 10 mM pH 7.5, MgCl2 10 mM, DTT 7.5 mM+0.2 mg/ml BSA) were added to each well of a 96 U bottom. After 30 min at r.t. incubation, reaction was stopped by 100 μl PBS+32 mM EDTA+0.1% Triton X-100+500 μM ATP, containing 1 mg SPA beads. Then a volume of 110 μl is transferred to Optiplate. After 20 min. incubation for substrate capture, 100 μl 5M CsCl were added to allow statification of beads to the top of the plate and let stand 4 hours before radioactivity counting in the Top-Count instrument
IC50 determination: inhibitors were tested at different concentrations ranging from 0.0015 to 10 μM. Experimental data were analyzed by the computer program GraphPad Prizm using the four parameter logistic equation: y=bottom+(top−bottom)/(1+10ˆ((log IC50−x)*slope)) where x is the logarithm of the inhibitor concentration, y is the response; y starts at bottom and goes to top with a sigmoid shape. Ki Calculation: Experimental method: Reaction was carried out in buffer (10 mM Tris, pH 7.5, 10 mM MgCl2, 0.2 mg/ml BSA, 7.5 mM DTI) containing 3.7 nM enzyme, histone and ATP (constant ratio of cold/labeled ATP 1/3000). Reaction was stopped with EDTA and the substrate captured on phosphomembrane (Multiscreen 96 well plates from Millipore). After extensive washing, the multiscreen plates are read on a top counter. Control (time zero) for each ATP and histone concentrations was measured. Experimental design: Reaction velocities are measured at different four ATP, substrate (histone) and inhibitor concentrations. An […] concentration matrix was designed around the respective ATP and substrate Km values, and the inhibitor IC50 values (0.3, 1, 3, 9 fold the Km or IC50 values). A preliminary time course experiment in the absence of inhibitor and at the different ATP and substrate concentrations allow the selection of a single endpoint time (10 min) in the linear range of the reaction for the Ki determination experiment. Kinetic parameter estimates: Kinetic parameters were estimated by simultaneous nonlinear least-square regression using [Eq.1] […]

Molecule | IC50
CC(C)(C)c1ccc(C(=O)Nc2[nH]nc3c2CN(C(=O)c2ccncc2)C3)cc1 [N-{5-(pyridine-4-carbonyl)-4,6-dihydropyrrolo[3,4-c]pyrazol-3-yl}-4-tertbutylbenzamide] | > 10000 nM
CC(C)(C)c1ccc(C(=O)Nc2[nH]nc3c2CN(C(=O)c2cnccn2)C3)cc1 [N-{5-(pyrazine-2-carbonyl)-4,6-dihydropyrrolo[3,4-c]pyrazol-3-yl}-4-tertbutylbenzamide] | 2500 nM
CC(C)(C)c1ccc(C(=O)Nc2n[nH]c3c2CN(c2ccnc(N4CCOCC4)n2)C3)cc1 [3-(4-tert-butyl-benzamido)-5-[2-(N-morpholino)pyrimidin-4-yl]-4,6-dihydropyrrolo[3,4-c]pyrazole] | 340 nM
3-(4-tert-butyl-benzamido)-5-[(2-propylamino)pyrimidin-4-yl]-4,6-dihydropyrrolo[3,4-c]pyrazole | 220 nM
